Assay results from US12139520B2 (priority 2020, dated 2024).
Numbered stars: 1 amine (or outer) side, 2 acyl side, 3 side chain; on linkers, the order of the positions; unused ones are H or OH. Bridge positions count the residues as written; N and C are the ends. Peptide text beside a SMILES is read from it. * marks the point of attachment. C20 diacid = O=C(O)CCCCCCCCCCCCCCCCCCC(=O)*; γGlu = O=C(O)[C@H](CCC(=O)[*:2])N[*:1]

Target: T1, hAMY3 receptor (Homo sapiens, UniProt O60896+P30988)
T1 sequence (P30988 25-474): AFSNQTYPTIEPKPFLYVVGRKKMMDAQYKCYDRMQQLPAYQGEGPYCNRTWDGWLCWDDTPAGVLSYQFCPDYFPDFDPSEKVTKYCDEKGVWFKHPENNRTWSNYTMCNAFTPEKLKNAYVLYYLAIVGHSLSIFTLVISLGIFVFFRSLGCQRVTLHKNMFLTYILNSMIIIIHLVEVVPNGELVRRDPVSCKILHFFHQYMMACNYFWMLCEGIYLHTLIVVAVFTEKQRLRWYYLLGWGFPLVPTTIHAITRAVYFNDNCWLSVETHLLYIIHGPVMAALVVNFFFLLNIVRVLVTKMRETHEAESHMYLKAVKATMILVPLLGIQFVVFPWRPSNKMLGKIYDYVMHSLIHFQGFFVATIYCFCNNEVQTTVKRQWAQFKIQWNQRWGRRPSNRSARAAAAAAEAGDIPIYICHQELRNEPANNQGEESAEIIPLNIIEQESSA
T1 sequence (O60896 24-148 partner): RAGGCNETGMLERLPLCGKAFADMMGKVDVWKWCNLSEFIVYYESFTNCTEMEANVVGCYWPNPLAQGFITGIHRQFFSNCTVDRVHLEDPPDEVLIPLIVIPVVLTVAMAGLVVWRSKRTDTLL
Test: cAMP assay for in vitro receptor activation, hAMY3-R
Format: cell-based
Details: cAMP assay, hAMY3 receptor; read-out: hAMY3R EC50
Procedure: General Protocols for cAMP Assays for Measuring In Vitro Receptor Activation
Cells stably overexpressing the hAMY3 receptor were obtained from Ogeda (now Astellas Pharma), sub-cloned and a monoclonal cell-line with an appropriate assay-window was expanded, aliquoted and frozen.
An aliquot was thawed and plated in DPBS with 0.05% casein and 0.5 mM IBMX as 2000 cells/well in a 384-well format. The cells were then immediately stimulated for 30 min at room temperature with graded doses of test compound using human amylin (Bachem, cat no. H-7905) as a positive control. cAMP accumulation was measured using a Cisbio assay for Gs coupled receptors (cat. no. 62AM4PEC), where the assay reagents were added as per the manufacturer's instructions and time-resolved fluorescence energy transfer recorded after one hour.

SMILES | EC50 [pM]
CC[C@H](C)[C@H](NC(=O)[C@H](CCC(N)=O)NC(=O)[C@H](Cc1c[nH]cn1)NC(=O)[C@H](C)NC(=O)[C@H](CC(C)C)NC(=O)[C@H](CCCNC(=N)N)NC(=O)[C@H](CCC(N)=O)NC(=O)[C@@H](NC(=O)[C@@H](NC(=O)[C@@H]1CSSC[C@H](NC(=O)CN)C(=O)N[C@@H](CCCNC(=N)N)C(=O)N[C@@H](Cc2ccccc2)C(=O)NCC(=O)N[C@@H]([C@@H](C)O)C(=O)N1)[C@@H](C)O)C(C)C)C(=O)N[C@@H](Cc1ccc(O)cc1)C(=O)N[C@@H](CCC(N)=O)C(=O)N[C@@H](Cc1ccccc1)C(=O)N[C@H](C(=O)N[C@@H](CC(=O)O)C(=O)N[C@@H](CCCCN)C(=O)N[C@@H](CC(=O)O)C(=O)N[C@@H](CCCCN)C(=O)N[C@@H](CC(=O)O)C(=O)N[C@@H](CC(N)=O)C(=O)N[C@H](C(=O)N[C@@H](C)C(=O)N1CCC[C@H]1C(=O)N[C@@H](CCCNC(=N)N)C(=O)N[C@@H](CO)C(=O)N[C@@H](CCCCN)C(=O)N[C@H](C(=O)NCC(=O)N1CCC[C@H]1C(=O)N[C@@H](CCC(N)=O)C(=O)NCC(=O)N[C@@H](Cc1ccc(O)cc1)C(N)=O)C(C)C)C(C)C)[C@@H](C)O [compound 375] (H-GCRFGTCTVQRLAHQIYQFTDKDKDNVAPRSKVGPQGY-NH2; disulfide 2-7; N-terminus assumed) | 22
CC[C@H](C)[C@H](NC(=O)[C@H](CCC(N)=O)NC(=O)[C@H](CC(N)=O)NC(=O)[C@H](C)NC(=O)[C@H](CC(C)C)NC(=O)[C@H](CCCNC(=N)N)NC(=O)[C@H](CCC(N)=O)NC(=O)[C@@H](NC(=O)[C@@H](NC(=O)[C@@H]1CSSC[C@H](NC(=O)CNC(=O)CC[C@H](NC(=O)CCCCCCCCCCCCCCCCCCC(=O)O)C(=O)O)C(=O)N[C@@H](CCCNC(=N)N)C(=O)N[C@@H](Cc2ccccc2)C(=O)NCC(=O)N[C@@H]([C@@H](C)O)C(=O)N1)[C@@H](C)O)C(C)C)C(=O)N[C@@H](Cc1ccc(O)cc1)C(=O)N[C@@H](CCC(N)=O)C(=O)N[C@@H](Cc1ccccc1)C(=O)N[C@H](C(=O)N[C@@H](CC(=O)O)C(=O)N[C@@H](CCCCN)C(=O)N[C@@H](CC(=O)O)C(=O)N[C@@H](CCCCN)C(=O)N[C@@H](CC(=O)O)C(=O)N[C@@H](CC(N)=O)C(=O)N[C@H](C(=O)N[C@@H](C)C(=O)N1CCC[C@H]1C(=O)N[C@@H](CCCNC(=N)N)C(=O)N[C@H](C(=O)N[C@@H](CC(N)=O)C(=O)N[C@H](C(=O)NCC(=O)N1CCC[C@H]1C(=O)N[C@@H](CCC(N)=O)C(=O)NCC(=O)N[C@@H](Cc1ccc(O)cc1)C(N)=O)C(C)C)[C@@H](C)O)C(C)C)[C@@H](C)O [compound 372] ({C20 diacid-γGlu}-GCRFGTCTVQRLANQIYQFTDKDKDNVAPRTNVGPQGY-NH2; disulfide 2-7) | 20
CC[C@H](C)[C@H](NC(=O)[C@H](CC(N)=O)NC(=O)[C@@H](NC(=O)[C@H](CCCNC(=N)N)NC(=O)[C@@H]1CCCN1C(=O)[C@H](C)NC(=O)[C@@H](NC(=O)[C@H](CC(N)=O)NC(=O)[C@H](CC(=O)O)NC(=O)[C@H](CCCCN)NC(=O)[C@H](CC(=O)O)NC(=O)[C@H](CCCCN)NC(=O)[C@H](CC(=O)O)NC(=O)[C@@H](NC(=O)[C@H](Cc1ccccc1)NC(=O)[C@H](CCC(N)=O)NC(=O)[C@H](Cc1ccc(O)cc1)NC(=O)[C@@H](NC(=O)[C@H](CCC(N)=O)NC(=O)[C@H](Cc1c[nH]cn1)NC(=O)[C@H](C)NC(=O)[C@H](CC(C)C)NC(=O)[C@H](CCCNC(=N)N)NC(=O)[C@H](CCC(N)=O)NC(=O)[C@@H](NC(=O)[C@@H](NC(=O)[C@@H]1CSSC[C@H](NC(=O)CN)C(=O)N[C@@H](CCCNC(=N)N)C(=O)N[C@@H](Cc2ccccc2)C(=O)NCC(=O)N[C@@H]([C@@H](C)O)C(=O)N1)[C@@H](C)O)C(C)C)[C@@H](C)CC)[C@@H](C)O)C(C)C)[C@@H](C)O)C(=O)NCC(=O)N1CCC[C@H]1C(=O)N[C@@H](CC(N)=O)C(=O)NCC(=O)N[C@@H](Cc1ccc(O)cc1)C(N)=O [compound 381] (H-GCRFGTCTVQRLAHQIYQFTDKDKDNVAPRTNIGPNGY-NH2; disulfide 2-7; N-terminus assumed) | 32

Stronger by EC50, values ahead:

EC50 [pM] | SMILES
12 | CC(C)C[C@H](NC(=O)[C@H](CCCNC(=N)N)NC(=O)[C@H](CCC(N)=O)NC(=O)[C@@H](NC(=O)[C@@H](NC(=O)[C@@H]1CSSC[C@H](NC(=O)CN)C(=O)N[C@@H](CCCNC(=N)N)C(=O)N[C@@H](Cc2ccccc2)C(=O)NCC(=O)N[C@@H]([C@@H](C)O)C(=O)N1)[C@@H](C)O)C(C)C)C(=O)N[C@@H](C)C(=O)N[C@@H](Cc1c[nH]cn1)C(=O)N[C@@H](Cc1ccccc1)C(=O)N[C@@H](CC(C)C)C(=O)N[C@@H](Cc1ccc(O)cc1)C(=O)N[C@@H](CCC(N)=O)C(=O)N[C@@H](Cc1ccccc1)C(=O)N[C@H](C(=O)N[C@@H](CC(=O)O)C(=O)N[C@@H](CCCCN)C(=O)N[C@@H](CC(=O)O)C(=O)N[C@@H](CCCCN)C(=O)N[C@@H](CC(=O)O)C(=O)N[C@@H](CC(N)=O)C(=O)N[C@H](C(=O)N[C@@H](C)C(=O)N1CCC[C@H]1C(=O)N[C@@H](CCCNC(=N)N)C(=O)N[C@H](C(=O)N[C@@H](CC(N)=O)C(=O)N[C@H](C(=O)NCC(=O)N[C@@H](CO)C(=O)N[C@@H](CC(N)=O)C(=O)N[C@H](C(=O)N[C@@H](Cc1ccc(O)cc1)C(N)=O)[C@@H](C)O)C(C)C)[C@@H](C)O)C(C)C)[C@@H](C)O [compound 56] (H-GCRFGTCTVQRLAHFLYQFTDKDKDNVAPRTNVGSNTY-NH2; disulfide 2-7; N-terminus assumed)
10 | CC[C@H](C)[C@H](NC(=O)[C@H](CC(N)=O)NC(=O)[C@@H](NC(=O)[C@H](CCCNC(=N)N)NC(=O)[C@@H]1CCCN1C(=O)[C@H](C)NC(=O)[C@@H](NC(=O)[C@H](CC(N)=O)NC(=O)[C@H](CC(=O)O)NC(=O)[C@H](CCCCN)NC(=O)[C@H](CC(=O)O)NC(=O)[C@H](CCCCN)NC(=O)[C@H](CC(=O)O)NC(=O)[C@@H](NC(=O)[C@H](Cc1ccccc1)NC(=O)[C@H](CCC(N)=O)NC(=O)[C@H](Cc1ccc(O)cc1)NC(=O)[C@H](CC(C)C)NC(=O)[C@H](Cc1ccccc1)NC(=O)[C@H](Cc1c[nH]cn1)NC(=O)[C@H](C)NC(=O)[C@H](CC(C)C)NC(=O)[C@H](CCCNC(=N)N)NC(=O)[C@H](CCC(N)=O)NC(=O)[C@@H](NC(=O)[C@@H](NC(=O)[C@@H]1CSSC[C@H](NC(=O)CN)C(=O)N[C@@H](CCCNC(=N)N)C(=O)N[C@@H](Cc2ccccc2)C(=O)NCC(=O)N[C@@H]([C@@H](C)O)C(=O)N1)[C@@H](C)O)C(C)C)[C@@H](C)O)C(C)C)[C@@H](C)O)C(=O)NCC(=O)N1CCC[C@H]1C(=O)N[C@@H](CCC(N)=O)C(=O)NCC(=O)N[C@@H](Cc1ccc(O)cc1)C(N)=O [compound 364] (H-GCRFGTCTVQRLAHFLYQFTDKDKDNVAPRTNIGPQGY-NH2; disulfide 2-7)
